{"source": "paper PMC9241695", "about": "“Selective Metal Chelation by a Thiosemicarbazone Derivative Interferes with Mitochondrial Respiration and Ribosome Biogenesis in Candida albicans” (Microbiology Spectrum, 2022)", "key": {"C. albicans 28D": {"test_system": "C. albicans 28D", "assay": "Microbroth dilution MIC80", "assay_type": "cell-based", "conditions": "Candida albicans; C. albicans 28D; read-out: MIC80", "source_text": "(§1) Compound library. The thiosemicarbazone derivatives Triapine and COTI-2 were purchased from Med Chem Express (MCE). The other 87 thiosemicarbazones used in this study were previously synthesized by our collaborators (1, 2). Their structures are shown in Table 1 and Table S1 to help the reader clearly understand the relationship between structure and activity.\n(§2) Strains and culture conditions. Clinically derived C. albicans isolates, including G5, F5, and Gu5, were kindly provided by Professor Joachim Morschhäuser of the University of Würzburg. Other clinical C. albicans isolates were kindly donated by Professor Qingguo Qi of Shandong University and Qianfoshan Hospital of Shandong Province Other Candida strains were obtained from Jinan Central Hospital.\n(§3) The zap1 mutant and its complemented strain were kindly provided by Professor Aaron P. Mitchell of Carnegie Mellon University (3). The C. neoformans strains used in this study was kindly donated by Professor Guojian Liao of Southwest University and A. fumigatus strain used in this study was provided by Professor Ling Lu of Nanjing Normal University. Before in vitro and in vivo experiments, all C. albicans strains were grown on YPD agar plates. After culturing at 30°C for 24 h, colonies of each strain were cultured in liquid YPD medium at 30°C with continuous shaking […]\n(§4) Antifungal susceptibility testing. To determine in vitro antifungal activities, the microbroth dilution method was carried out in RPMI1640 medium according to the guidelines of the Clinical and Laboratory Standards Institute (4, 5). The initial concentration in RPMI1640 medium was 1 × 10^3 CFU/mL for the C. albicans and C. neoformans suspensions but 1 × 10^4 CFU/mL for A. fumigatus. The range of final drug concentrations was 0.0156–64 μg/mL. The plates were incubated at35°C for 24 […]\n(§5) h (for C. albicans, C. krusei, C. tropicalis, C. parapsilosis) or 48 h (for C. neoformans, A. fumigatus). The MIC was determined based on visible growth inhibition compared with the control. All experiments were performed in duplicate. […]"}, "C. neoformans 108": {"test_system": "C. neoformans 108", "assay": "Microbroth dilution MIC80", "assay_type": "cell-based", "conditions": "Cryptococcus neoformans; C. neoformans 108; read-out: MIC80", "source_text": "as §1, §2, §3, §4, §5"}, "A. fumigatus 1161": {"test_system": "A. fumigatus 1161", "assay": "Microbroth dilution MIC80", "assay_type": "cell-based", "conditions": "Aspergillus fumigatus; A. fumigatus 1161; read-out: MIC80", "source_text": "as §1, §2, §3, §4, §5"}, "C. albicans 11e": {"test_system": "C. albicans 11e", "assay": "Microbroth dilution MIC80", "assay_type": "cell-based", "conditions": "Candida albicans; C. albicans 11e; read-out: MIC80", "source_text": "as §1, §2, §3, §4, §5"}, "C. albicans 24g": {"test_system": "C. albicans 24g", "assay": "Microbroth dilution MIC80", "assay_type": "cell-based", "conditions": "Candida albicans; C. albicans 24g; read-out: MIC80", "source_text": "as §1, §2, §3, §4, §5"}, "C. albicans YEM15": {"test_system": "C. albicans YEM15", "assay": "Microbroth dilution MIC80", "assay_type": "cell-based", "conditions": "Candida albicans; C. albicans YEM15; read-out: MIC80", "source_text": "as §1, §2, §3, §4, §5"}, "C. albicans 11f": {"test_system": "C. albicans 11f", "assay": "Microbroth dilution MIC80", "assay_type": "cell-based", "conditions": "Candida albicans; C. albicans 11f; read-out: MIC80", "source_text": "as §1, §2, §3, §4, §5"}, "C. tropicalis CT2": {"test_system": "C. tropicalis CT2", "assay": "Microbroth dilution MIC80", "assay_type": "cell-based", "conditions": "Candida tropicalis; C. tropicalis CT2; read-out: MIC80", "source_text": "as §1, §2, §3, §4, §5"}, "C. albicans CA1": {"test_system": "C. albicans CA1", "assay": "Microbroth dilution MIC80", "assay_type": "cell-based", "conditions": "Candida albicans; C. albicans CA1; read-out: MIC80", "source_text": "as §1, §2, §3, §4, §5"}, "C. albicans 28A": {"test_system": "C. albicans 28A", "assay": "Microbroth dilution MIC80", "assay_type": "cell-based", "conditions": "Candida albicans; C. albicans 28A; read-out: MIC80", "source_text": "as §1, §2, §3, §4, §5"}, "C. albicans DSY654": {"test_system": "C. albicans DSY654", "assay": "Microbroth dilution MIC80", "assay_type": "cell-based", "conditions": "Candida albicans", "source_text": "as §1, §2, §3, §4, §5"}, "C. albicans CA3": {"test_system": "C. albicans CA3", "assay": "Microbroth dilution MIC80", "assay_type": "cell-based", "conditions": "Candida albicans; C. albicans CA3; read-out: MIC80", "source_text": "as §1, §2, §3, §4, §5"}, "C. albicans YEM13": {"test_system": "C. albicans YEM13", "assay": "Microbroth dilution MIC80", "assay_type": "cell-based", "conditions": "Candida albicans", "source_text": "as §1, §2, §3, §4, §5"}, "C. albicans CA4": {"test_system": "C. albicans CA4", "assay": "Microbroth dilution MIC80", "assay_type": "cell-based", "conditions": "Candida albicans; C. albicans CA4; read-out: MIC80", "source_text": "as §1, §2, §3, §4, §5"}, "C. albicans F5": {"test_system": "C. albicans F5", "assay": "Microbroth dilution MIC80", "assay_type": "cell-based", "conditions": "Candida albicans; C. albicans F5; read-out: MIC80", "source_text": "as §1, §2, §3, §4, §5"}, "C. albicans 28I": {"test_system": "C. albicans 28I", "assay": "Microbroth dilution MIC80", "assay_type": "cell-based", "conditions": "Candida albicans; C. albicans 28I; read-out: MIC80", "source_text": "as §1, §2, §3, §4, §5"}, "C. albicans Gu5": {"test_system": "C. albicans Gu5", "assay": "microbe, parasite or virus in culture", "assay_type": "cell-based", "conditions": "Candida albicans; C. albicans Gu5; read-out: MIC80", "source_text": "as §1, §2, §3, §4, §5"}, "C. albicans G5": {"test_system": "C. albicans G5", "assay": "microbe, parasite or virus in culture", "assay_type": "cell-based", "conditions": "Candida albicans; C. albicans G5; read-out: MIC80", "source_text": "as §1, §2, §3, §4, §5"}, "C. albicans SC5314 [1]": {"test_system": "C. albicans SC5314", "assay": "Antifungal susceptibility testing, microbroth dilution MIC", "assay_type": "cell-based", "conditions": "Candida albicans, SC5314; C. albicans wild-type strain; RPMI1640, 35°C, 24 h; read-out: MIC (μg/mL) against fungi SC5314", "source_text": "as §1, §2, §3, §4, §5"}, "C. albicans SC5314 [2]": {"test_system": "C. albicans SC5314", "assay": "G. mellonella infection model", "assay_type": "in vivo, Galleria mellonella", "conditions": "19ak 0.4 μg per larva, FLC 2 μg per larva", "protocol": "The G. mellonella infection model was used to evaluate the in vivo activity of 19ak in terms of survival, fungal burden, and histological features. A total of 60 larvae of similar size were selected and randomly allocated to four groups. The last right foreleg of each larva was injected with 10 μL of C. albicans SC5314 suspension (2 × 10^7 CFU/mL). Two hours after infection, the larvae were injected with 10 μL of drug or vehicle as follows for the four groups: 19ak (0.4 μg per larva), FLC (2 μg per larva), control (PBS), and blank control (no injection with C. albicans but injections of sterile PBS twice). The data for the blank control are not shown because this group survived well during the experiment. Failure to respond to light contact with forceps was considered a sign of larval death. In the survival assay, the number of surviving larvae in each group was calculated at the same time every day for 4 days.\nTo determine fungal burden, larval infection and treatment were performed as described above with groups of 30 larvae each. Each day, five larvae were randomly selected from each group and homogenized with glass beads in 0.5 mL of sterile PBS. The homogenate was serially diluted with sterile PBS, and 5 μL was spread on a yeast-peptone-dextrose solid plate ([62]). Experiments were performed at least three times independently.\nWe also conducted histopathological studies to explore the therapeutic effects of the drugs on G. mellonella fungal infection. First, the groups of larvae were infected as described above. After 48 h, three larvae from each group were randomly selected and fixed in 4% paraformaldehyde for sectioning and Periodic acid-Schiff (PAS) staining. The tissue was observed and photographed under an Olympus microscope with 40 × magnification (IX71, Olympus, Tokyo, Japan). The experiments were performed independently a minimum of three times."}, "C. krusei CK1": {"test_system": "C. krusei CK1", "assay": "Microbroth dilution MIC80", "assay_type": "cell-based, Candida krusei", "conditions": "Pichia kudriavzevii; C. krusei CK1; read-out: MIC80", "source_text": "as §1, §2, §3, §4, §5"}, "C. albicans SC5314 [3]": {"test_system": "C. albicans SC5314", "assay": "Drug resistance study by serial passage", "assay_type": "cell-based, Candida albicans", "conditions": "RPMI 1640 medium, 40-day period, passages at 0.5 × MIC"}, "C. neoformans H99": {"test_system": "C. neoformans H99", "assay": "Antifungal susceptibility testing, microbroth dilution MIC", "assay_type": "cell-based", "conditions": "Cryptococcus neoformans, H99; C. neoformans wild-type strain; 48 h; read-out: MIC (μg/mL) against fungi H99", "source_text": "as §1, §2\n(§6) The zap1 mutant and its complemented strain were kindly provided by Professor Aaron P. Mitchell of Carnegie Mellon University (3). The C. neoformans strains used in this study was kindly donated by Professor Guojian Liao of Southwest University and A. fumigatus strain used in this study was provided by Professor Ling Lu of Nanjing Normal University. […]\nas §4, §5"}, "A. fumigatus AF293": {"test_system": "A. fumigatus AF293", "assay": "Antifungal susceptibility testing, microbroth dilution MIC", "assay_type": "cell-based", "conditions": "Aspergillus fumigatus, AF293; standard strain of A. fumigatus; 48 h; read-out: MIC (μg/mL) against fungi AF293", "source_text": "as §1, §2, §6, §4, §5"}, "C. parapsilosis CP001": {"test_system": "C. parapsilosis CP001", "assay": "Microbroth dilution MIC80", "assay_type": "cell-based, Candida parapsilosis", "conditions": "Lodderomyces parapsilosis; C. parapsilosis CP001; read-out: MIC80", "source_text": "as §1, §2, §3, §4, §5"}}}
{"smiles": "OC(Cn1cncn1)(Cn1cncn1)c1ccc(F)cc1F", "note": "[FLC, fluconazole, reference compound]", "values": [{"measurement": "MIC80", "setting": "C. albicans 28D", "value": "> 128", "unit": "µg/mL"}, {"measurement": "MIC80", "setting": "C. neoformans 108", "value": 2, "unit": "µg/mL"}, {"measurement": "MIC80", "setting": "A. fumigatus 1161", "value": "> 64", "unit": "µg/mL"}, {"measurement": "MIC80", "setting": "C. albicans 11e", "value": 1, "unit": "µg/mL"}, {"measurement": "MIC80", "setting": "C. albicans 24g", "value": 1, "unit": "µg/mL"}, {"measurement": "MIC80", "setting": "C. albicans YEM15", "value": 64, "unit": "µg/mL"}, {"measurement": "MIC80", "setting": "C. albicans 11f", "value": 1, "unit": "µg/mL"}, {"measurement": "MIC80", "setting": "C. tropicalis CT2", "value": 2, "unit": "µg/mL"}, {"measurement": "MIC80", "setting": "C. albicans CA1", "value": 2, "unit": "µg/mL"}, {"measurement": "MIC80", "setting": "C. albicans 28A", "value": "> 128", "unit": "µg/mL"}, {"measurement": "MIC80", "setting": "C. albicans DSY654", "value": 0.25, "unit": "µg/mL"}, {"measurement": "MIC80", "setting": "C. albicans CA3", "value": 2, "unit": "µg/mL"}, {"measurement": "MIC80", "setting": "C. albicans YEM13", "value": 64, "unit": "µg/mL"}, {"measurement": "MIC80", "setting": "C. albicans CA4", "value": 8, "unit": "µg/mL"}, {"measurement": "MIC80", "setting": "C. albicans F5", "value": "> 128", "unit": "µg/mL"}, {"measurement": "MIC80", "setting": "C. albicans 28I", "value": "> 128", "unit": "µg/mL"}, {"measurement": "MIC80", "setting": "C. albicans Gu5", "value": "> 128", "unit": "µg/mL"}, {"measurement": "MIC80", "setting": "C. albicans G5", "value": "> 128", "unit": "µg/mL"}, {"measurement": "MIC", "setting": "C. albicans SC5314 [1]", "value": 2, "unit": "µg/mL"}, {"measurement": "Histopathology of infected larvae", "setting": "C. albicans SC5314 [2]; 48 h, PAS staining", "value": "fewer infected areas"}, {"measurement": "Fungal burden of infected larvae", "setting": "C. albicans SC5314 [2]; compared with the control group", "value": "greatly reduced the fungal burden"}, {"measurement": "MIC80", "setting": "C. krusei CK1", "value": 2, "unit": "µg/mL"}, {"measurement": "Change of MIC after repeated exposure", "setting": "C. albicans SC5314 [3]", "value": "significant increase in the MIC value"}, {"measurement": "MIC", "setting": "C. neoformans H99", "value": 2, "unit": "µg/mL"}, {"measurement": "MIC", "setting": "A. fumigatus AF293", "value": "> 64", "unit": "µg/mL"}, {"measurement": "MIC80", "setting": "C. parapsilosis CP001", "value": 1, "unit": "µg/mL"}]}
